Assay results taken from PubChem BioAssay (NCI).
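Compound exposure: 48 hours, 5 concentrations, 96-well plates. Abbreviation: GI50, concentration required for 50% inhibition of growth. TGI: total growth inhibition.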

Assays:
Experiment in all cases: DTP human tumour cell line panel, 48 h
LOX IMVI melanoma = tested on: LOX IMVI melanoma
MOLT-4 leukemia = tested on: MOLT-4 leukemia
PC-3 prostate = tested on: PC-3 prostate
UO-31 renal = tested on: UO-31 renal
RPMI-8226 leukemia = tested on: RPMI-8226 leukemia
CAKI-1 renal = tested on: CAKI-1 renal
MCF7 breast = tested on: MCF7 breast
SK-MEL-5 melanoma = tested on: SK-MEL-5 melanoma
RXF 393 renal = tested on: RXF 393 renal
SW-620 colon = tested on: SW-620 colon
HCT-116 colon = tested on: HCT-116 colon
MALME-3M melanoma = tested on: MALME-3M melanoma
BT-549 breast = tested on: BT-549 breast
786-0 renal = tested on: 786-0 renal
UACC-62 melanoma = tested on: UACC-62 melanoma
SNB-75 CNS = tested on: SNB-75 CNS
M14 melanoma = tested on: M14 melanoma
HCC-2998 colon = tested on: HCC-2998 colon
SK-MEL-28 melanoma = tested on: SK-MEL-28 melanoma
SN12C renal = tested on: SN12C renal
ACHN renal = tested on: ACHN renal
HCT-15 colon = tested on: HCT-15 colon
U251 CNS = tested on: U251 CNS
IGROV1 ovarian = tested on: IGROV1 ovarian
SF-539 CNS = tested on: SF-539 CNS
OVCAR-4 ovarian = tested on: OVCAR-4 ovarian
SF-268 CNS = tested on: SF-268 CNS
SNB-19 CNS = tested on: SNB-19 CNS
NCI-H226 lung = tested on: NCI-H226 lung
OVCAR-3 ovarian = tested on: OVCAR-3 ovarian
NCI-H522 lung = tested on: NCI-H522 lung
UACC-257 melanoma = tested on: UACC-257 melanoma
SR leukemia = tested on: SR leukemia
MDA-MB-435 = tested on: MDA-MB-435
SK-OV-3 ovarian = tested on: SK-OV-3 ovarian
A549 NSCLC = tested on: A549 NSCLC
TK-10 renal = tested on: TK-10 renal
KM12 colon = tested on: KM12 colon
OVCAR-5 ovarian = tested on: OVCAR-5 ovarian
SF-295 CNS = tested on: SF-295 CNS
NCI-H460 lung = tested on: NCI-H460 lung
MDA-MB-231 breast = tested on: MDA-MB-231 breast
SK-MEL-2 melanoma = tested on: SK-MEL-2 melanoma
T-47D breast = tested on: T-47D breast
DU-145 prostate = tested on: DU-145 prostate
HOP-62 NSCLC = tested on: HOP-62 NSCLC
HT29 colon = tested on: HT29 colon
CCRF-CEM leukemia = tested on: CCRF-CEM leukemia
OVCAR-8 ovarian = tested on: OVCAR-8 ovarian
COLO 205 colon = tested on: COLO 205 colon
EKVX NSCLC = tested on: EKVX NSCLC
HS 578T breast = tested on: HS 578T breast

CCCC(=O)O[C@]1(C)CC[C@@H]2[C@H]3[C@@H]1[C@@H]1C/C(C)=C\CC[C@](C)(OC(=O)[C@@H]2C)[C@H]3O1
GI50 (LOX IMVI melanoma): 24.6 µM | TGI (LOX IMVI melanoma): 59.9 µM | GI50 (MOLT-4 leukemia): 14.7 µM | TGI (MOLT-4 leukemia): 30.5 µM | GI50 (PC-3 prostate): 16.2 µM | TGI (PC-3 prostate): 41.3 µM | GI50 (UO-31 renal): 23.6 µM | TGI (UO-31 renal): 65.6 µM | GI50 (RPMI-8226 leukemia): 15.9 µM | TGI (RPMI-8226 leukemia): 37.6 µM | GI50 (CAKI-1 renal): 31.7 µM | TGI (CAKI-1 renal): > 100 µM | GI50 (MCF7 breast): 29.1 µM | TGI (MCF7 breast): > 100 µM | GI50 (SK-MEL-5 melanoma): 13.4 µM | TGI (SK-MEL-5 melanoma): 33.1 µM | GI50 (RXF 393 renal): > 100 µM | TGI (RXF 393 renal): > 100 µM | GI50 (SW-620 colon): 40.6 µM | TGI (SW-620 colon): > 100 µM | GI50 (HCT-116 colon): 18.8 µM | TGI (HCT-116 colon): 38.2 µM | GI50 (MALME-3M melanoma): 61.1 µM | TGI (MALME-3M melanoma): > 100 µM | GI50 (BT-549 breast): 61.9 µM | TGI (BT-549 breast): > 100 µM | GI50 (786-0 renal): 72.6 µM | TGI (786-0 renal): > 100 µM | GI50 (UACC-62 melanoma): 24.4 µM | TGI (UACC-62 melanoma): > 100 µM | GI50 (SNB-75 CNS): > 100 µM | TGI (SNB-75 CNS): > 100 µM | GI50 (M14 melanoma): 32.5 µM | TGI (M14 melanoma): > 100 µM | GI50 (HCC-2998 colon): 21.7 µM | TGI (HCC-2998 colon): 82.9 µM | GI50 (SK-MEL-28 melanoma): 78.5 µM | TGI (SK-MEL-28 melanoma): > 100 µM | GI50 (SN12C renal): 47.9 µM | TGI (SN12C renal): > 100 µM | GI50 (ACHN renal): 36.2 µM | TGI (ACHN renal): > 100 µM | GI50 (HCT-15 colon): 44.4 µM | TGI (HCT-15 colon): > 100 µM | GI50 (U251 CNS): 41.8 µM | TGI (U251 CNS): > 100 µM | GI50 (IGROV1 ovarian): 24.3 µM | TGI (IGROV1 ovarian): > 100 µM | GI50 (SF-539 CNS): > 100 µM | TGI (SF-539 CNS): > 100 µM | GI50 (OVCAR-4 ovarian): 52.9 µM | TGI (OVCAR-4 ovarian): > 100 µM | GI50 (SF-268 CNS): 47.8 µM | TGI (SF-268 CNS): > 100 µM | GI50 (SNB-19 CNS): > 100 µM | TGI (SNB-19 CNS): > 100 µM | GI50 (NCI-H226 lung): 41.3 µM | TGI (NCI-H226 lung): > 100 µM | GI50 (OVCAR-3 ovarian): 30.3 µM | TGI (OVCAR-3 ovarian): > 100 µM | GI50 (NCI-H522 lung): 19.6 µM | TGI (NCI-H522 lung): 75.5 µM | GI50 (UACC-257 melanoma): 43.3 µM | TGI (UACC-257 melanoma): > 100 µM | GI50 (SR leukemia): 13.2 µM | TGI (SR leukemia): 26.9 µM | GI50 (MDA-MB-435): 32.6 µM | TGI (MDA-MB-435): > 100 µM | GI50 (SK-OV-3 ovarian): > 100 µM | TGI (SK-OV-3 ovarian): > 100 µM | GI50 (A549 NSCLC): 40.1 µM | TGI (A549 NSCLC): > 100 µM | GI50 (TK-10 renal): 86.9 µM | TGI (TK-10 renal): > 100 µM | GI50 (KM12 colon): 32.8 µM | TGI (KM12 colon): > 100 µM | GI50 (OVCAR-5 ovarian): 38.2 µM | TGI (OVCAR-5 ovarian): > 100 µM | GI50 (SF-295 CNS): 41.2 µM | TGI (SF-295 CNS): > 100 µM | GI50 (NCI-H460 lung): 22.5 µM | TGI (NCI-H460 lung): 69.8 µM | GI50 (MDA-MB-231 breast): 25.5 µM | TGI (MDA-MB-231 breast): 94.4 µM | GI50 (SK-MEL-2 melanoma): 49.5 µM | TGI (SK-MEL-2 melanoma): > 100 µM | GI50 (T-47D breast): > 100 µM | TGI (T-47D breast): > 100 µM | GI50 (DU-145 prostate): 74.5 µM | TGI (DU-145 prostate): > 100 µM | GI50 (HOP-62 NSCLC): 60.3 µM | TGI (HOP-62 NSCLC): > 100 µM | GI50 (HT29 colon): 32.1 µM | TGI (HT29 colon): > 100 µM | GI50 (CCRF-CEM leukemia): 8.89 µM | TGI (CCRF-CEM leukemia): 26 µM | GI50 (OVCAR-8 ovarian): 47.6 µM | TGI (OVCAR-8 ovarian): > 100 µM | GI50 (COLO 205 colon): 43.2 µM | TGI (COLO 205 colon): > 100 µM | GI50 (EKVX NSCLC): 68.3 µM | TGI (EKVX NSCLC): > 100 µM | GI50 (HS 578T breast): 40 µM | TGI (HS 578T breast): > 100 µM
